Consider five molecules from US20110111407A1, “METHOD FOR ANALYSING THE EPIGENETIC STATUS OF THE HTRA 1 GENE IN A BIOLOGICAL SAMPLE” (priority 2008, published 2011).

Like-named read-outs stand apart in the source and are kept apart here.

The test system of data set [1] is HtrA1 expression in HCT116 and SW480 cells. Nature of the data set: HtrA1 expression by quantitative real-time PCR after 5-Aza-dC and TSA treatment. It is filed as cell-based, human. The note with it: HCT116 and SW480 cancer cells treated with 5-Aza-dC (5 μM and 10 μM, 56 h) then 400 nM TSA (16 h) vs solvent only. As for the experimental part: Expression of HtrA1 in HCT116 and SW480 cells treated with 5-Aza-dC and TSA. Cells were treated with 5-Aza-dC and TSA or solvent only. RNA was extracted from the cells followed by reverse transcription. cDNA was analyzed by quantitative real-time PCR.
Cells were seeded at a density of 5×10^5/60 mm dish and allowed to attach over 24 h in a 37° C. incubator in a humified atmosphere with 5% CO2. 5-aza-2′-deoxycytidine was solved in 50% acetic acid. It was added to the medium for a final concentration ranging from 0 to 10 μM for 72 h. At every 24 h interval, fresh medium containing the drug was added. Cells were incubated in a 37° C. incubator in a humified atmosphere with 5% CO2. […]
At the end of the treatment cells were washed twice with PBS and RNA was isolated for analysis of HtrA1 expression using quantitative Real-Time-PCR. […]
Quantitative Real-Time PCR was performed on the RotorGene3000 (Corbett Life Science) using Absolute QPCR SYBR Green Mix (ABgene) according to the manufacturer's instructions. 1 μl of cDNA, 12.5 μl Absolute QPCR SYBR Green Mix and 400 nM of each primer were used for the quantitative real-time PCR reaction. […]
The relative gene expression level of HtrA1 was calculated relative to the GAPDH and PPIA genes according to the method of Pfaffl (Pfaffl Nucleic Acids Res 29:e45 (2001)).

In a further data set the test system is cells. Particulars: cited from earlier work.
Data set [2] has as its target HtrA1 (Homo sapiens, UniProt Q92743). The experiment in a line: HtrA1 enzymatic activity with p-NA substrate. It is filed as biochemical. The note with it: 25 μM Cytochalasin E, preincubated 10 minutes at 37° C., 0.5 mM p-NA substrate, measured 70 minutes at 405 nm. The procedure: HtrA1 activity was determined with a p-NA substrate. HtrA1 was incubated with either DMSO alone or 25 μM Cytochalasin E that was dissolved in DMSO. Reaction was measured spectrophometrically for 70 minutes at 37° C. at 405 nm.
Enzymatic activity of HtrA1 was assayed using acyl p-nitroanilide (p-NA) substrate FANQHLCGSHLVEA-p-NA. HtrA1 (5 μg) was preincubated with Cytochalasin E (25 μM) for 10 minutes at 37° C. Reaction was initiated by adding p-NA substrate at a final concentration of 0.5 mM. The volume of each reaction was 100 μl in 50 mM Tris-HCl pH 8. Reaction was measured continuously in a spectrophotometer for 70 minutes at 37° C. at 405 nm.

Another data set relates to SW480 cells. Nature of the data set: Polyploidy of SW480 cells depleted for HtrA1 (FACS, karyotyping). It is filed as cell-based, human. The procedure:
A) Polyploidy of SW480 cells depleted for HtrA1/FACS analysis • SW480 (colon cancer) cells were transduced with a shRNA against HtrA1. After some passages cells were analyzed by propidium iodide staining for their DNA content. Gate M1 corresponds to a DNA content of 2n, gate M3 corresponds to a DNA content of 4n and gate M5 corresponds to a DNA content of 8n. […] B) Polyploidy of SW480 cells depleted for HtrA 1/karyo-typing • Metaphase chromosomes of SW480 cell lines transduced with plko empty vector and plko vector containing a shRNA against HtrA1.
Cells were harvested by treatment with trypsin/EDTA. Cells were centrifuged for 5 minutes at 1700 g and 4° C. The pellet was resuspended and washed in 1 ml PBS. Cells were centrifuged again for 5 minutes at 1700 g and 4° C. The supernatant was discarded and the pellet was resuspended in 100 μl PBS. […] After addition of 5 μl RNase A (10 mg/ml) and 15 μl propidium iodide (2 mg/ml, Sigma #P4170), cells were incubated in the dark at 4° C. for 60 minutes and then analysed at the flow cytometer (FACScalibur, BD biosciences) […]
Cell suspensions were dropped onto pre-cleaned, wet, ice-cold glass microscope slides to obtain good spreading of the chromosome sets. […] Intact metaphase cells (those that were not disrupted during the preparation step) were counted for their chromosome numbers at 1000 fold magnification (oil-immersion).

The test system of the next data set is p21. The experiment in a line: p21 RNA level by quantitative RT-PCR after shRNA against HtrA1. It is filed as cell-based, human. As for the experimental part: (§1) Analysis of HtrA1 and p21 expression in U373 (astrocytoma) and SW480 (colon cancer) cells transduced with an shRNA against HtrA1 or an empty vector control. The HtrA1- and p21-RNA level were analysed by quantitative RT-PCR.
(§2) The cell line SW480 derived from human colon adenocarcinoma (DMSZ no. ACC 313) and the cell line U373 MG derived from human glioblastoma astrocytoma (ECACC no. 89081403) were cultured in DMEM (Gibco, Invitrogen) supplemented with 10% fetal bovine serum (FBS) and 1% penicillin-streptomycin at 5% CO2 and 37° C. The media for the stable transduced SW480 cell lines additionally contain 1.8 μg/ml puromycin.
(§3) 4×10^5 SW480 cells/well were seeded into a six-well plate. After two days the six-well plate was 80% confluent and RNA was extracted by using total RNA isolation kit (Macherey-Nagel). RNA was purified with NucleoSpin RNAII columns (Macherey-Nagel) according to the procedure by the manufacturer. […]
(§4) Quantitative RT-PCR was done with Platinum SYBR Green qPCR-superMix-UDG-kit (Invitrogen) with Rotor-Gene RG3000 from Corbett Research. […]
(§5) The total reaction volume was of 25 μl, containing 12.5 μl SYBR Green PCR Master Mix (Invitrogen), 1 μl Primer (4.5 μM each) and 4 μl cDNA (20 ng). […] Melting curve was measured every 5 seconds from 50° C. to 99° C. Gene expression ratios for each sample were calculated as described (Pfaffl, Nucleic Acids Res, 29:e45 (2001)). […]

Data set [3] has as its system HtrA1. Nature of the data set: HtrA1 RNA level by quantitative RT-PCR after shRNA transduction. The data set is classed as cell-based, human. Particulars: U373 and SW480 cells expressing the shRNA vs empty vector control. As for the experimental part:
as §1, §2, §3, §4, §5

Chain of HtrA1 (Homo sapiens, UniProt Q92743) (Q92743 23-480): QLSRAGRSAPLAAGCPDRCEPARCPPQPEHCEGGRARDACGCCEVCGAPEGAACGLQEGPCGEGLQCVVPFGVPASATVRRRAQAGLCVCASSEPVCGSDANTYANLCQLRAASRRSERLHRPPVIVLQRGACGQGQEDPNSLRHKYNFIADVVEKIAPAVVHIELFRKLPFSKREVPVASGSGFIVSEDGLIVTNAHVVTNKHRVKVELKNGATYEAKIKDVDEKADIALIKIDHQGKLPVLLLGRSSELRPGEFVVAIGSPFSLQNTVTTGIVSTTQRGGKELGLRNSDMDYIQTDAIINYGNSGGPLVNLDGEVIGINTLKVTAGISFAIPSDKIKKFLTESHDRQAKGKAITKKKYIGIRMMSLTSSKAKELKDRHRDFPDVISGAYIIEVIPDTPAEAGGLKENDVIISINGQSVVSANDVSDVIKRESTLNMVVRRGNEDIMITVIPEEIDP

`Nc1ncn([C@H]2C[C@H](O)[C@@H](CO)O2)c(=O)n1` [5-Aza-dC, 5-Aza-2′-deoxycytidine]: the HtrA1 expression entry in data set [1] was “large increase in HtrA1 expression”.

Turning to `C=C1[C@@H](C)[C@H]2[C@H](Cc3ccccc3)NC(=O)[C@]23OC(=O)/C=C/[C@H](O)CCC[C@@H](C)C/C=C/[C@H]3[C@@H]1O` [Cytochalasin B], the “p21 induction and cell cycle arrest” value in the data set on cells (high amounts) was “induce p21 and cell cycle arrest”. Besides, the cell cycle arrest entry in the data set on cells (large amounts (10 μg/ml)) was “cell cycle arrest via p21”; in the data set with cells (low doses (0.5 μg/ml)), “no cell cycle arrest”. The polyploidy result is “cause polyploidy” in the data set with cells (large amounts (10 μg/ml)); “also cause polyploidy” in the data set with cells (low doses (0.5 μg/ml)); “causes polyploidy” with cells (no concentration stated, by inhibition of actin polymerisation).

Consider `C[C@H]1C/C=C/[C@H]2[C@@H]3O[C@]3(C)[C@@H](C)[C@H]3[C@H](Cc4ccccc4)NC(=O)[C@]32OC(=O)O/C=C/[C@@](C)(O)C1=O` [Cytochalasin E], for which the HtrA1 activity inhibition entry on HtrA1 [2] is “potent HtrA1 inhibitor”; at HtrA1 [2] (listed as cytochalasin E) it was “efficiently inhibits HtrA1”.

Turning to `CC(/C=C/C(=O)NO)=C\[C@@H](C)C(=O)c1ccc(N(C)C)cc1` [TSA, Trichostatin A], the HtrA1 expression result in data set [1] is given as “large increase in HtrA1 expression”.

B1: shRNA against HtrA1: hairpin sequence (Seq. ID. No 25/26) in lentiviral plko vector, knocks down HtrA1 (nucleic acid)
sense: CCGGGATCTCAGGAGCGTATATATTCTCGAGAATATATACGCTCCTGAGATCTTTTTG
antisense: CTAGAGTCCTCGCATATATAAGAGCTCTTATATATGCGAGGACTCTAGAAAAACTTAA
In the case of B1, the “DNA content by propidium iodide staining (FACS)” value in the data set on SW480 cells (SW480 cells vs empty vector) is “shift of the main peak from 2n to 4n and a shift of the smaller peak from 4n to 8n”. The “polyploidy by karyotyping of metaphase chromosomes” value in the data set on SW480 cells (SW480 cells vs empty vector control) is reported as “higher grade of polyploidy”. Further, in the data set with p21 (HtrA1 expressed at much lower levels by shRNA), the “p21 mRNA levels downregulated by a factor of” value is reported as 10. For the same molecule, in the data set with p21 (both cell lines (U373, SW480) expressing the shRNA against HtrA1), the P21 level down-regulated stood at 90%. In the data set with HtrA1 [3], the HtrA1 level downregulated entry is “more than 90%”.
